Holding throughout (experiment): Antiviral activity assay in Vero E6 cells, qRT-PCR of supernatant
Holding throughout (format): cell-based

Assay [1] concerns SARS-CoV-2 Alpha variant (hCoV-19/Japan/QK002/2020). The conditions noted are these: Severe acute respiratory syndrome coronavirus 2, Vero C1008, compound concentration (for 5-ALA/SFC the 5-ALA concentration, ratio 4:1).
The subject of assay [2] is SARS-CoV-2 Beta variant (hCoV-19/Japan/TY8-612/2020). To be noted: Severe acute respiratory syndrome coronavirus 2, Vero C1008, compound concentration (for 5-ALA/SFC the 5-ALA concentration, ratio 4:1).
The subject of assay [3] is SARS-CoV-2 Gamma variant (hCoV-19/Japan/TY7-501/2020). To be noted: for IC50: Severe acute respiratory syndrome coronavirus 2, Vero C1008, Gamma, compound concentration (for 5-ALA/SFC the 5-ALA concentration, ratio 4:1).
The subject of assay [4] is SARS-CoV-2 Delta variant (hCoV-19/Japan/TY11-330-P1//2021). To be noted: for IC50: Severe acute respiratory syndrome coronavirus 2, Vero C1008, Delta, compound concentration (for 5-ALA/SFC the 5-ALA concentration, ratio 4:1).

As usually defined, the IC50 is the concentration at which inhibition is half-maximal. Turning to `NCC(=O)CCC(=O)O` [5-ALA, 5-aminolevulinic acid], the IC50 in assay [1] was 104 µM; in assay [2], 1590 µM; in assay [3], > 2000 µM; in assay [4], > 2000 µM. Moreover, the viral inhibition result is listed as “no viral inhibition” in assay [3] and “little viral inhibition” in assay [4].

Regarding `CCC(CC)COC(=O)[C@H](C)N[P@](=O)(OC[C@H]1O[C@@](C#N)(c2ccc3c(N)ncnn23)[C@H](O)[C@@H]1O)Oc1ccccc1` [remdesivir, Remdesivir], the IC50 in assay [1], in assay [2], in assay [3] and in assay [4] was 0.1 to 1 µM in each case.

The values above are taken from PMC8739347 (Tropical Medicine and Health, 2022).
